Results reported in US4756904A (Oak Ridge Associated Universities, Inc., priority 1986, dated 1988).

Tested on: myocardium
Protocol: Sixteen closed-chest studies were performed in 6 healthy, adult mongrel dogs of both sexes weighing 15 to 30 kg. The dogs were maintained on a standard laboratory diet which was discontinued 24 hours prior to study. The animals were anesthetized using a combination of xylazine and sodium pentobarbital. Transmission cross-sectional scans of the chest area were performed on each dog with an ECAT II scanner using a ^68 Ge ring source with medium resolution filters and standard shadow shields. Measured attenuation coefficients were used for reconstructing the emission tomographs. […] Serial scans of the heart from base to apex in 10-15 mm steps were made starting 3-5 minutes after injection. After each series was completed, the ECAT II bed was returned to the original position and the dogs were rescanned. This procedure was repeated over a 2 to 4 hour period. Each set of scans required approximately 1 hour for 6 slices, so that 2 to 4 sets of images were obtained in each study. Sequential images were also obtained through a 20-mm section of the heart over a 2-hour period. Additional images from 1 dog were obtained using the new high-resolution ECAT III scanner. […] The animals were injected through a cannula or catheter in the leg and heparanized venous blood samples were removed from the opposite side. Known aliquots of whole blood, plasma, and erythrocytes were assayed in a well-type scintillation counter to determine the ^64 Cu levels present in the different components.

## copper-64 citrate [^64 Cu citrate]
^64 Cu citrate, PET
  image quality with the PET: unexpectedly distinct image
dog
  useful images of the myocardium: yields useful images of the myocardium
dog, intravenous, tomographic images
  uptake by the myocardium: rapid and uniform uptake of the compound throughout the myocardium
dog, over the time periods studied
  uptake by myocardial tissue over time: occurs quite rapidly and remains constant over the time periods studied
dog, transverse section
  visibility of the left ventricle in the emission scan: very distinctly
  visibility of the right ventricle in the emission scan: less clearly seen
